Measured values from ChEMBL document CHEMBL2010727, “A novel series of benzimidazole NR2B-selective NMDA receptor antagonists” (Bioorg Med Chem Lett, 2012).
pIC50: −log10 of the molar value. Activity calls are given as the source filed them. No cut-off for these calls is given here.

What was measured:
[1] = target: Glutamate receptor ionotropic, NMDA 2B (Homo sapiens, UniProt Q05586+Q13224); assay: Displacement of [3H]-Ro256981 from human NR2B receptor
Homo sapiens = organism: Homo sapiens; assay: Selectivity ratio of human NR2B receptor over human ERG
[2] = Inhibition of alpha1 adrenergic receptor at 10 uM
[3] = target: T1, Glutamate NMDA receptor; GRIN1/GRIN2B (Homo sapiens) (UniProt Q05586+Q13224); assay: Reversible inhibition of human NR1-NR2B receptor expressed in HEK293T cells assessed as inhibition of glutamate-induced response by whole cell voltage clamp electrophysiology assay; type: cell-based; details: HEK-293T
[4] = target: T1, Glutamate NMDA receptor; GRIN1/GRIN2B (Homo sapiens); assay: Reversible inhibition of human NR1-NR2B receptor expressed in HEK293T cells assessed as inhibition of glycine-induced response by whole cell voltage clamp electrophysiology assay; type: cell-based; details: HEK-293T
[5] = Antagonist activity at human NR1-NR2A receptor by FLIPR-based Ca2+ flux assay
Cytochrome P450 1A2 = target: T2, Cytochrome P450 1A2 (Homo sapiens, UniProt P05177); assay: Inhibition of CYP1A2; type: ADME
T2 sequence (P05177 whole entry): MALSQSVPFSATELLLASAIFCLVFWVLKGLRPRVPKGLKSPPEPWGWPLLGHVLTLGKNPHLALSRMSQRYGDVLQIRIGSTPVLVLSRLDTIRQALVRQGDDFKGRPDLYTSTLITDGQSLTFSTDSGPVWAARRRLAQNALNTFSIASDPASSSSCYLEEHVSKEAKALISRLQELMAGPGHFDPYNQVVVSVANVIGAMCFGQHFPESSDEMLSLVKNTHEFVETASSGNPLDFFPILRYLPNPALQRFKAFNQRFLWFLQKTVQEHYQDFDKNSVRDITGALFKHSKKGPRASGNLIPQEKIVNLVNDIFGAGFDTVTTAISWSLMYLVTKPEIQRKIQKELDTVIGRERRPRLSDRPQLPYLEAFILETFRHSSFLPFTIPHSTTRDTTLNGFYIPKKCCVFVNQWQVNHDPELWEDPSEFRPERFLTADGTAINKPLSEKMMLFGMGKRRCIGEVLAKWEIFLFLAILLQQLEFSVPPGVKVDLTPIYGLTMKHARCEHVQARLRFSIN

Cytochrome P450 2C9 = Cytochrome P450 2C9 (Homo sapiens, UniProt P11712); assay: Inhibition of CYP2C9; type: ADME
Cytochrome P450 2C19 = Cytochrome P450 2C19 (Homo sapiens, UniProt P33261); assay: Inhibition of CYP2C19; type: ADME
Cytochrome P450 2D6 = Cytochrome P450 2D6 (Homo sapiens, UniProt P10635); assay: Inhibition of CYP2D6; type: ADME
Cytochrome P450 3A4 = Cytochrome P450 3A4 (Homo sapiens, UniProt P08684); assay: Inhibition of CYP3A4; type: ADME
Liver microsomes = assay: Intrinsic clearance in human liver microsomes; type: ADME, Microsome
Blood = assay: Drug uptake in rat blood at 3 mg/kg, sc; type: ADME, organism-based; design: dose 3 mg/kg, route subcutaneous; details: in vivo, read-out: Drug uptake
[6] = Tmax in rat at 3 mg/kg, sc; type: ADME, organism-based; design: dose 3 mg/kg, route subcutaneous; details: in vivo
[7] = Terminal half life in rat at 3 mg/kg, sc; type: ADME, organism-based; design: dose 3 mg/kg, route subcutaneous; details: in vivo, read-out: beta t1/2 (converted)
[8] = Ratio of drug level in brain to blood in rat at 3 mg/kg, sc; type: ADME, organism-based; design: dose 3 mg/kg, route subcutaneous

Chain of Cytochrome P450 2D6 (P10635 whole entry): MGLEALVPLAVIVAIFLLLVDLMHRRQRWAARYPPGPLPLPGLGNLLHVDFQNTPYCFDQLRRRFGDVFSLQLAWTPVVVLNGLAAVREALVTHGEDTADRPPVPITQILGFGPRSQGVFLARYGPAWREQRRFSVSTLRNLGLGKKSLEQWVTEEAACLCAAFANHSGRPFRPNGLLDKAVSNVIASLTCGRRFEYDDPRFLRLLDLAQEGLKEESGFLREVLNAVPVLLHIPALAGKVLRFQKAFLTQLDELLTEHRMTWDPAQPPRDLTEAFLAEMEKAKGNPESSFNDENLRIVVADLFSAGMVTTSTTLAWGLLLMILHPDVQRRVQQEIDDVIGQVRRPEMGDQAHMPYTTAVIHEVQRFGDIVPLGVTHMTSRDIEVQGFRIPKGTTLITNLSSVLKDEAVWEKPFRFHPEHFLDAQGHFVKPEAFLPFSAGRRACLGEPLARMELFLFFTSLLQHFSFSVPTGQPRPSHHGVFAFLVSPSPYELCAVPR
Chain of Cytochrome P450 2C9 (P11712 whole entry): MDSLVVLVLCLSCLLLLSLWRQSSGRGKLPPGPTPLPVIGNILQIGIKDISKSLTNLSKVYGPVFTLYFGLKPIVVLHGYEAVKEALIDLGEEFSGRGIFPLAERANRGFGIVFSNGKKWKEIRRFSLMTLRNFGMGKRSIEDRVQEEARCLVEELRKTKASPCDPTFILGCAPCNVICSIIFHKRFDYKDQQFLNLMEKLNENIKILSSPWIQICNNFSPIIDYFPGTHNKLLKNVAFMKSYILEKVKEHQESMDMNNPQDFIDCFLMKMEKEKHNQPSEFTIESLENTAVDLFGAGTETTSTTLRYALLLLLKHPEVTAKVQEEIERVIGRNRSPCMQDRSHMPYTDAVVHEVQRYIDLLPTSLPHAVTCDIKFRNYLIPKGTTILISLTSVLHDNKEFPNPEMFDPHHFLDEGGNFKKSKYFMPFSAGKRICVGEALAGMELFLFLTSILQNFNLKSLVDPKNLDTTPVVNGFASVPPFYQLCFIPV
Chain of Cytochrome P450 3A4 (P08684 whole entry): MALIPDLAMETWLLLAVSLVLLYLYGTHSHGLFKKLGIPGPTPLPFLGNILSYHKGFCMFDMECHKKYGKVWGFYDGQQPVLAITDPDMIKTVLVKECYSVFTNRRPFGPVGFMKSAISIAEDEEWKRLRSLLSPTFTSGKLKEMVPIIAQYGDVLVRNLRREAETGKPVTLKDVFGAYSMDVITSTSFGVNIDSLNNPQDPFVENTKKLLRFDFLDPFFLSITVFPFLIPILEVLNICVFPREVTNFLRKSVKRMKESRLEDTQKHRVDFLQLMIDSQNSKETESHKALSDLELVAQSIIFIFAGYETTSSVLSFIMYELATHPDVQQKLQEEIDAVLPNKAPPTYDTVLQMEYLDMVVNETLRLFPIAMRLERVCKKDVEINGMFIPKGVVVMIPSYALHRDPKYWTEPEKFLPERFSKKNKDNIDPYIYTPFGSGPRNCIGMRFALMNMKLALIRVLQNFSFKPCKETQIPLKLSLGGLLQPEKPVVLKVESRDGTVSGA
Chain of Cytochrome P450 2C19 (P33261 whole entry): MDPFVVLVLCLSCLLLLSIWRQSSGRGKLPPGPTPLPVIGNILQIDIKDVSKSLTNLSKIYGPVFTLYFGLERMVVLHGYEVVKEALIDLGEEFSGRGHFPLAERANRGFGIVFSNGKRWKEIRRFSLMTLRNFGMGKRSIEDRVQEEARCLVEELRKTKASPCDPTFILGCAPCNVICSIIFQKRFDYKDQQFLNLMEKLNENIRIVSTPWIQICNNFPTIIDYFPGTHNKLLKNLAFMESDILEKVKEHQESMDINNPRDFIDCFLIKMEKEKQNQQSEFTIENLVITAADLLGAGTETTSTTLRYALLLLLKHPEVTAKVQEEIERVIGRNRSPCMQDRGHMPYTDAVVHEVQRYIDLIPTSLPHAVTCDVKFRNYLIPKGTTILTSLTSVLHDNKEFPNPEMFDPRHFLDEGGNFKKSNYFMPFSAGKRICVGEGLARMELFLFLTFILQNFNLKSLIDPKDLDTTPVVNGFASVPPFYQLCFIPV

| SMILES | pIC50 [1] | Selectivity ratio (Homo sapiens) | inhibition [2] | pIC50 [5] | also measured |
| --- | --- | --- | --- | --- | --- |
| CCC1CCCCN1Cc1c(F)ccc2[nH]c(-c3ccccc3)nc12 (stereo not drawn) |  | > 100 | < 50% |  | inhibition [3]: Active; inhibition [4]: Active |
| Oc1ccc2[nH]cnc2c1CN1CCCCC1 |  |  | < 50% |  |  |
| CCCNCc1c(O)ccc2[nH]c(-c3ccccc3)nc12 |  |  | < 50% |  |  |
| Oc1ccc2[nH]c(-c3cccc(F)c3F)nc2c1CN1CCCC1 |  | > 100 | < 50% |  |  |
| Oc1ccc2nc(-c3cccc(F)c3F)[nH]c2c1CNCc1ccco1 | 6.10 |  |  | < 4.30 |  |
| Oc1ccc2[nH]c(-c3ccccc3)nc2c1CN1CCC(c2ccccc2)CC1 | 7.10 | > 100 |  | < 4.30 |  |
| Fc1ccc2[nH]c(-c3ccccc3)nc2c1CN1CCCC1 |  |  | < 50% |  | inhibition [3]: Active; inhibition [4]: Active |
| c1ccc(-c2nc3cccc(CN4CCCCC4)c3[nH]2)cc1 |  |  |  |  | pIC50 (Cytochrome P450 1A2): 5.15; pIC50 (Cytochrome P450 2C9): < 4.30; pIC50 (Cytochrome P450 2C19): < 4.30; pIC50 (Cytochrome P450 2D6): 5.30; pIC50 (Cytochrome P450 3A4): < 4.30; CLH (Liver microsomes): 3.6 mL/min/g |
| CCC1CCCCN1Cc1c(F)ccc2nc(-c3ccccc3)[nH]c12 (stereo not drawn) | 6.00 |  |  | < 4.30 |  |
| Fc1ccc2[nH]c(-c3ccccc3)nc2c1CN1CCCCCC1 | 6.70 | > 100 | < 50% | < 4.30 | inhibition [3]: Active; inhibition [4]: Active |
| CN(C)Cc1c(O)ccc2[nH]c(-c3ccccc3)nc12 |  |  | < 50% |  |  |
| Fc1ccc2nc(-c3ccccc3)[nH]c2c1CN1CCCC1 |  |  |  |  | pIC50 (Cytochrome P450 1A2): 4.80; pIC50 (Cytochrome P450 2C9): < 4.52; pIC50 (Cytochrome P450 2C19): < 4.52; pIC50 (Cytochrome P450 2D6): 5.30; pIC50 (Cytochrome P450 3A4): < 4.52; CLH (Liver microsomes): < 0.5 mL/min/g |
| Oc1ccc2[nH]c(Cc3ccccc3)nc2c1CN1CCCC1 |  |  | < 50% |  |  |
| O=C(c1cccc2[nH]c(-c3ccccc3)nc12)N1CCCCC1 |  | > 100 | < 50% |  | inhibition [3]: Active; inhibition [4]: Active |
| Oc1ccc2nc(-c3cccc(F)c3F)[nH]c2c1CN1CCCC1 | 7.90 |  |  | < 4.30 |  |
| O=C(c1cccc2nc(-c3ccccc3)[nH]c12)N1CCCCC1 | < 5.00 |  |  | < 4.30 |  |
| CC(C)NCc1c(F)ccc2nc(-c3ccccc3)[nH]c12 | 6.10 |  |  | < 4.30 |  |
| Oc1ccc2[nH]c(-c3cccc(F)c3F)nc2c1CNCc1cccs1 |  |  | < 50% |  |  |
| Fc1ccc2[nH]c(-c3ccccc3)nc2c1CN1CCCCC1 |  | > 100 | < 50% |  | inhibition [3]: Active; inhibition [4]: Active |

Further lines, with some results ahead:

| pIC50 [1] | Selectivity ratio (Homo sapiens) | inhibition [2] | pIC50 [5] | SMILES | also measured |
| --- | --- | --- | --- | --- | --- |
| < 5.00 | > 100 | < 50% | < 4.30 | Cc1cccc2[nH]c(-c3ccccc3)nc12 | inhibition [3]: Active; inhibition [4]: Active |
|  |  | < 50% |  | c1ccc(-c2nc3c(CN4CCCCC4)cccc3[nH]2)cc1 | inhibition [3]: Active; inhibition [4]: Active |
| 8.10 | > 100 | < 50% | < 4.30 | Oc1ccc2[nH]c(-c3ccccc3)nc2c1CN1CCCCCC1 |  |
| 5.60 |  |  | < 4.30 | Fc1ccc2nc(-c3ccccc3)[nH]c2c1CN1CCOCC1 |  |
|  | > 100 | < 50% |  | CC(C)NCc1c(F)ccc2[nH]c(-c3ccccc3)nc12 | inhibition [3]: Active; inhibition [4]: Active |
| 7.40 | > 100 | < 50% | < 4.30 | Cc1ccc(-c2nc3c(CNC4CC4)c(O)ccc3[nH]2)cc1 |  |
| 6.40 |  |  | < 4.30 | CN1CCN(Cc2c(O)ccc3nc(-c4ccccc4)[nH]c23)CC1 |  |
|  | > 100 | < 50% |  | Fc1ccc2[nH]c(-c3ccccc3)nc2c1CN1CCOCC1 | inhibition [3]: Active; inhibition [4]: Active |
|  |  | < 50% |  | Oc1ccc2[nH]c(-c3ccccc3)nc2c1CN1CCCCC1 | pIC50 (Cytochrome P450 1A2): 5.52; pIC50 (Cytochrome P450 2C9): < 4.52; pIC50 (Cytochrome P450 2C19): < 4.52; pIC50 (Cytochrome P450 2D6): 5.22; pIC50 (Cytochrome P450 3A4): < 4.52; CLH (Liver microsomes): 3.9 mL/min/g; concentration (Blood): 600 nM; Tmax [6]: 48 min; half-life [7]: 66 min; Kp [8]: 2.7 |
| 8.10 |  |  | < 4.30 | Oc1ccc2nc(-c3ccccc3)[nH]c2c1CN1CCCC1 |  |
|  |  | < 50% |  | Oc1ccc2[nH]c(-c3ccccc3)nc2c1CN1CCOCC1 |  |
| 7.50 |  |  | < 4.30 | Oc1ccc2nc(-c3ccccc3)[nH]c2c1CNC1CCCC1 |  |
|  | > 100 | < 50% |  | Oc1ccc2[nH]c(-c3ccccc3)nc2c1CN1CCCC1 |  |
|  | > 100 | < 50% |  | Oc1ccc2[nH]c(-c3cccc(F)c3F)nc2c1CNCc1ccco1 |  |
|  | > 100 | < 50% |  | CN1CCN(Cc2c(O)ccc3[nH]c(-c4ccccc4)nc23)CC1 |  |
|  | > 100 | < 50% |  | Oc1ccc2[nH]c(-c3ccccc3)nc2c1CNC1CCCC1 |  |
| 7.10 |  |  | < 4.30 | Fc1ccc2nc(-c3ccccc3)[nH]c2c1CN1CCCCC1 |  |
